Data published in article PMC11901438, “Synthesis and Evaluation of Boron-Containing Heterocyclic Compounds with Antimicrobial and Anticancer Activities” (Molecules, 2025).
In brackets after ≈: the same amount, converted by molar mass.

Experiments:
[1] = test system: M. tuberculosis H37RV ATCC 27294 strain; experiment: Resazurin microtiter assay (REMA), MIC90; assay type: cell-based; settings: Mycobacterium tuberculosis, cut-off 25 µM
SCC-25 cells = experiment: MTT anticancer assay in SCC-25 cells; assay type: cell-based; settings: for IC50: MTT, 24 h; for SI (selectivity index): NOK-si versus SCC-25
Description: (§1) Boronic acid and benzoboroxole derivatives have been identified as potential anticancer agents. To investigate their efficacy against head and neck cancer cell lines, SCC-25 cells were utilized in this study, as a model for oral squamous cell carcinoma. Additionally, cytotoxicity was performed in normal oral keratinocytes NOK-si cells to evaluate the selective index of the compounds. […] The selectivity of the compounds is quantified by the selectivity index (SI), with those with an SI greater than 3.0 being considered promising for further evaluation, in accordance with internal protocols.
(§2) The SCC-25 was purchased from Rio de Janeiro Cell Bank, and NOK-si was kindly provided by Prof. Carlos Rossa from the School of Dentistry—UNESP. The cell lines were initially thawed and cultured in 25 cm^2 cell culture flasks. Cell growth was monitored using a microscope, and the culture medium was changed periodically. Upon reaching confluency, cell dissociation was achieved by adding 5 mL of trypsin (Sigma-Aldrich, St Louis, MO, USA) and incubating the bottles in a CO2 incubator for 10 min. Subsequently, the cells were transferred to 15 mL Falcon tubes and centrifuged at 2000 rpm for 10 min. Cell counting was performed using a Countess II FL automated cell counter (ThermoFischer, Waltham, MA, USA). The cells were seeded at a density of 30,000 cells per well in 96-well plates. The plates were then incubated at 37 °C in 5% CO2 for 24 h. Following this, test compounds were incubated for another 24 h at 10 different concentrations: 50, 25, 12.5, 6.25, 3.12, 1.56, 0.78, 0.39, 0.19, and 0.097 µg/mL. After the specified time, MTT reagent (3 mg/mL) (Sigma-Aldrich, St Louis, MO, USA) dissolved in phenol-free RPMI 1640 was added and incubated for 4 h. The formed MTT crystals were solubilized using 2-propanol P.A (Sigma-Aldrich, St Louis, MO, USA) with agitation. Absorbance was read at 562 nm using an EZ Read 400 microplate reader (Biochrom, Cambridge, UK) and ADAP 2.0 Biochrom software (version 2.0). IC50 values and graphs were calculated by Dr. Paula Aboud Barbugli using Excel and Prism software (version 10.4.1). The MTT assay results were evaluated for normality using the Shapiro–Wilk test, followed by one-way ANOVA with Tukey’s post hoc test at a significance level of 5%.

NOK-si cells = experiment: MTT cytotoxicity assay in normal oral keratinocytes NOK-si; assay type: cell-based; settings: Keratinocyte, 24 h, read-out: NOK-si IC50
Description: as §1, §2

T. rubrum ATCC 28189 = experiment: Antifungal susceptibility test (CLSI M38-A2 microdilution, resazurin), MIC90; settings: Trichophyton rubrum, ATCC28189, read-out: T. rubrum ATCC 28189 MIC90
[2] = test system: T. mentagrophytes (ATCC 11481); experiment: as above; settings: Trichophyton mentagrophytes, ATCC11481|ATCC28189, read-out: T. mentagrophytes ATCC 28189 MIC90
HaCaT cell line = experiment: Resazurin cytotoxicity assay using HaCaT cells; assay type: cell-based, human; settings: compared to the benzoboroxole derivatives 44 and 45
Description: For the cytotoxicity assay, the HaCaT cell line, which is characterized as immortalized normal human keratinocytes, was used.
For the cytotoxicity assay, the HaCat cell line, characterized as immortalized normal human keratinocytes, was used. The cells were maintained in (DMEM) supplemented with 10% of bovine fetal serum (BFS) (Sigma-Aldrich, St Louis, MO, USA) in cell culture bottles with 5% CO2 at 37 °C. After a confluence of 75%, the cells were treated with trypsin + EDTA 0.25%, centrifugated at 1500 rpm for 10 min, and 5 × 10^4 cells/well were seeded in 96-well plates for incubation for 24 h for cell adhesion before treatment. After adhesion, the cells were treated with 100 µL of the compounds 34 and 40, with fungi activity in concentrations between 3.90 and 125 µg/mL. Regarding the controls, DMSO in the concentration range of (1–4%) was used as a positive control for cytotoxicity; the beyond negative control comprised HaCaT cells only in DMEM medium (Sigma-Aldrich, St Louis, MO, USA). After 24 h of treatment, 30 µL of resazurin 50 µM was added to each well for 4 h, and the plates were read at 560 and 600 nm using microplate reader BioTek (Agilent, Santa Clara, CA, USA), Gen 5 software (version 2.09). The […] (IC50) for each compound was determined based on resazurin reduction. Three independent assays were performed.

[3] = target: leucyl-tRNA synthetase (LeuRS); parameters: method as in PMID 28953378, PMID 38365949; settings: cited from earlier work
[4] = test system: M. tuberculosis H37Rv strains; settings: cited from earlier work

Row | SMILES | MIC90 [1] [µM] | IC50 (SCC-25 cells; Homo sapiens, SCC-25, 24 h) [µM] | SI (selectivity index) (SCC-25 cells) | CC50 (NOK-si cells) [µM] | MIC90 (T. rubrum ATCC 28189) [µM] | MIC90 [2] [µM] | cytotoxic effects in HaCaT cells (comparison in words) (HaCaT cell line) | IC50 [3] [µM] | MIC90 [4] [µM] | MIC against M. tuberculosis H37Rv strains [4] [µM] | IC50 (SCC-25 cells) [µM] | killing effect in SCC-25 cells (SCC-25 cells)
1 | O=C(Nc1ccc(N2CCN(c3ccc(F)cc3)CC2)c(F)c1)c1cccc(B(O)O)c1 [Compound 31, [3-({3-Fluoro-4-[4-(4-fluorophenyl)piperazin-1-yl]phenyl}carbamoyl)phenyl]boronic acid] | > 25 | 59.1 | 3.73 | > 221 | 286 (≈ 125 µg/mL) | 286 (≈ 125 µg/mL) |  |  |  |  |  | 
2 | O=C(Nc1ccc(N2CCCCCC2)c(F)c1)c1ccc(B(O)O)cc1 [Compound 40, (4-{[4-(Azepan-1-yl)-3-fluorophenyl]carbamoyl}phenyl)boronic acid] | > 25 | 85.1 | 1.49 | 127 | 88 (≈ 31.3 µg/mL) | 42 (≈ 15 µg/mL) | higher cytotoxic effects |  |  |  |  | 
3 | O=C(Nc1ccc(N2CCN(c3ccc(F)cc3)CC2)c(F)c1)c1ccc(B(O)O)cc1 [Compound 37, [4-({3-Fluoro-4-[4-(4-fluorophenyl)piperazin-1-yl]phenyl}carbamoyl)phenyl]boronic acid] | > 25 | 79.1 | 1.55 | 123 | 286 (≈ 125 µg/mL) | 286 (≈ 125 µg/mL) |  |  |  |  |  | 
4 | NC[C@H]1OB(O)c2c(OCCO)ccc(Cl)c21 [ganfeborole, (S)-3-(aminomethyl)-4-chloro-7-(2-hydroxyethoxy)benzo[c][1,2]oxaborol-1(3H)-ol] |  |  |  |  |  |  |  | 0.2 | 0.08 (≈ 0.0206 µg/mL) | 0.08 (≈ 0.0206 µg/mL) |  | 
5 | O=c1[nH]cc(F)c(=O)[nH]1 [5-fluorouracil, reference compound] |  | 1800 |  |  |  |  |  |  |  |  |  | 
6 | O=C(Nc1ccc(N2CCSCC2)c(F)c1)c1cccc(B(O)O)c1 [Compound 32, {3-[(3-Fluoro-4-thiomorpholinophenyl)carbamoyl]phenyl}boronic acid] | > 25 |  | <1 |  | 347 (≈ 125 µg/mL) | 347 (≈ 125 µg/mL) |  |  |  |  |  | 
7 | O=C(Nc1ccc(N2CCOCC2)c(F)c1)c1ccc(B(O)O)cc1 [Compound 39, {4-[(3-Fluoro-4-morpholinophenyl)carbamoyl]phenyl}boronic acid] | > 25 | 74.1 | 1.04 | 77.1 | 363 (≈ 125 µg/mL) | 363 (≈ 125 µg/mL) |  |  |  |  |  | 
8 | O=C(Nc1ccc(N2CCSCC2)c(F)c1)c1ccc2c(c1)COB2O [Compound 45, N-(3-fluoro-4-thiomorpholinophenyl)-1-hydroxy-1,3-dihydrobenzo[c][1,2]oxaborole-5-carboxamide] | > 25 | 83 | <1 | 65.8 | 336 (≈ 125 µg/mL) | 336 (≈ 125 µg/mL) |  |  |  |  |  | 
9 | O=C(Nc1ccc(N2CCN(c3ccccn3)CC2)c(F)c1)c1cccc(B(O)O)c1 [Compound 29, {3-({3-Fluoro-4-[4-(pyridin-2-yl)piperazin-1-yl]phenyl}carbamoyl)phenyl}boronic acid] | > 25 | 79.1 | <1 | 110 | 297 (≈ 125 µg/mL) | 297 (≈ 125 µg/mL) |  |  |  |  | 117 | 
10 | O=C(Nc1ccc(N2CCN(c3ncccn3)CC2)c(F)c1)c1cccc(B(O)O)c1 [Compound 30, [3-({3-Fluoro-4-[4-(pyrimidin-2-yl)piperazin-1-yl]phenyl}carbamoyl)phenyl]boronic acid] | > 25 |  | <1 |  | 297 (≈ 125 µg/mL) | 297 (≈ 125 µg/mL) |  |  |  |  |  | 
11 | NNC(=O)c1ccncc1 [Isoniazide, reference compound] | 0.11 (≈ 0.0151 µg/mL) |  |  |  |  |  |  |  |  |  |  | 
12 | O=C(Nc1ccc(N2CCSCC2)c(F)c1)c1ccc(B(O)O)cc1 [Compound 38, {4-[(3-Fluoro-4-thiomorpholinophenyl)carbamoyl]phenyl}boronic acid] | > 25 |  | <1 | 149 | 347 (≈ 125 µg/mL) | 347 (≈ 125 µg/mL) |  |  |  |  |  | 
13 | O=C(Nc1ccc(N2CCN(c3ccccn3)CC2)c(F)c1)c1ccc(B(O)O)cc1 [Compound 35, [4-({3-Fluoro-4-[4-(pyridin-2-yl)piperazin-1-yl]phenyl}carbamoyl)phenyl]boronic acid] | > 25 | 45 | 3.37 | 221 | 297 (≈ 125 µg/mL) | 297 (≈ 125 µg/mL) |  |  |  |  | 45.6 | 
14 | O=C(Nc1ccc(N2CCCCCC2)c(F)c1)c1cccc(B(O)O)c1 [Compound 34, (3-{[4-(Azepan-1-yl)-3-fluorophenyl]carbamoyl}phenyl)boronic acid] | > 25 | 67.6 | 1.91 | 129 | 42 (≈ 15 µg/mL) | 21 (≈ 7.48 µg/mL) | higher cytotoxic effects |  |  |  |  | 
15 | O=C(Nc1ccc(N2CCN(c3ncccn3)CC2)c(F)c1)c1ccc(B(O)O)cc1 [Compound 36, [4-({3-Fluoro-4-[4-(pyrimidin-2-yl)piperazin-1-yl]phenyl}carbamoyl)phenyl]boronic acid] | > 25 | 133 | 1.00 | 134 | 297 (≈ 125 µg/mL) | 297 (≈ 125 µg/mL) |  |  |  |  |  | 
16 | O=C(Nc1ccc(N2CCOCC2)c(F)c1)c1cccc(B(O)O)c1 [Compound 33, {3-[(3-Fluoro-4-morpholinophenyl)carbamoyl]phenyl}boronic acid] | > 25 |  | <1 |  | 363 (≈ 125 µg/mL) | 363 (≈ 125 µg/mL) |  |  |  |  |  | 
17 | CN(C/C=C/C#CC(C)(C)C)Cc1cccc2ccccc12 [Terbinafine, reference compound] |  |  |  |  | 0.0001 (≈ 2.91e-05 µg/mL) | 2.5e-05 (≈ 7.29e-06 µg/mL) |  |  |  |  |  | 
18 | O=C(Nc1ccc(N2CCN(c3ccccn3)CC2)c(F)c1)c1ccc2c(c1)COB2O [Compound 44, N-{3-fluoro-4-[4-(pyridin-2-yl)piperazin-1-yl]phenyl}-1-hydroxy-1,3-dihydrobenzo[c][1,2]oxaborole-5-carboxamide] | > 25 |  | <1 |  | 289 (≈ 125 µg/mL) | 146 (≈ 63.1 µg/mL) |  |  |  |  |  | absent killing effect
